Assay [1] deals with Human immunodeficiency virus type 1 protease (Human immunodeficiency virus 1, UniProt Q72874). Kind of assay: Inhibitory activity against HIV-1 protease.
Assay [2] relates to CCRF-CEM. Briefly: (§1) Antiviral activity to inhibit viral replication of HIV-1 infected CEM cells. Format: functional, cell-based. The conditions noted are these: Homo sapiens.
Assay [3] concerns CCRF-CEM. Described as §1. Format: functional. The following applies: Homo sapiens.

The term IC50 denotes the concentration that inhibits the measured activity by half. What is called IC95 is the concentration at which the effect reaches the 95% level. Low values mean greater potency, high ones weaker potency. Consider `CC(C)(C)NC(=O)[C@@H]1C[C@@H]2SCC[C@@H]2CN1C[C@@H](O)[C@H](Cc1ccccc1)NC(=O)[C@@H](CS(=O)(=O)c1ccc(F)cc1)NC(=O)C(F)(F)F`, for which the half-inhibitory concentration (IC50) was below 0.2 nM in assay [1] and 15 nM in the assay on CCRF-CEM [2]. This molecule also yielded a concentration for an effect of 95% (IC95) in the assay on CCRF-CEM [3] of 0.058 µM.

Turning to `CC(C)(C)NC(=O)[C@@H]1C[C@@H]2CCCC[C@@H]2CN1C[C@@H](O)[C@H](Cc1ccccc1)NC(=O)[C@@H](CS(=O)(=O)c1ccc2ccccc2c1)NS(C)(=O)=O`, the values for the IC50 (in assay [1]; in the assay on CCRF-CEM [2]) were 0.5 nM and 3.2 nM, respectively. The molecule further came in with an IC95 in the assay with CCRF-CEM [3] of 0.01 µM.

Take `CC(C)(C)NC(=O)[C@@H]1C[C@@H]2SCC[C@@H]2CN1C[C@@H](O)[C@H](Cc1ccccc1)NC(=O)[C@@H](CS(=O)(=O)c1cccc2cccnc12)NS(C)(=O)=O`: the half-maximal inhibitory concentration (IC50) is 0.71 nM in assay [1] and 72 nM in the assay with CCRF-CEM [2]. This molecule also had a 95% effect concentration (IC95) in the assay with CCRF-CEM [3] of 0.25 µM.

For the molecule `CC(=O)N[C@H](CS(=O)(=O)c1ccc2ccccc2c1)C(=O)N[C@@H](Cc1ccccc1)[C@H](O)CN1C[C@H]2CCS[C@H]2C[C@H]1C(=O)NC(C)(C)C`, the half-maximal inhibitory concentration (IC50) in assay [1] was found to be 0.5 nM; with CCRF-CEM [2], 1.9 nM. Further, the IC95 in the assay on CCRF-CEM [3] is 0.023 µM.

As for `CC(C)(C)NC(=O)[C@@H]1C[C@@H]2SCC[C@@H]2CN1C[C@@H](O)[C@H](CSc1ccccc1)NC(=O)[C@@H](CS(=O)(=O)c1ccc2ccccc2c1)NC(=O)C(F)(F)F`, the IC50 came out at 1.8 nM in assay [1] and 57 nM in the assay on CCRF-CEM [2]. In the assay with CCRF-CEM [3], the concentration for an effect of 95% (IC95) turned out to be 0.24 µM.

Take `CC(C)(C)NC(=O)[C@@H]1C[C@@H]2CCCC[C@@H]2CN1C[C@@H](O)[C@H](Cc1ccccc1)NC(=O)[C@@H](C[S+]([O-])c1ccc(F)cc1)NS(C)(=O)=O` (some centres undefined): the 50% inhibitory concentration (IC50) turned out to be 0.6 nM in assay [1] and 9.1 nM in the assay on CCRF-CEM [2]. The molecule further yielded a 95% effect concentration (IC95) in the assay with CCRF-CEM [3] of 0.031 µM.

On to `CC(C)CN(C[C@@H](O)[C@H](Cc1ccccc1)NC(=O)[C@@H](C[S+]([O-])c1ccc2ccccc2c1)NS(C)(=O)=O)C(=O)NC(C)(C)C` (some centres undefined), for which the IC50 came out at 2.1 nM in assay [1] and 14 nM with CCRF-CEM [2]. The same molecule gave a concentration for an effect of 95% (IC95) with CCRF-CEM [3] of 0.062 µM.

For `CC(C)(C)NC(=O)[C@@H]1C[C@@H]2CCCC[C@@H]2CN1C[C@@H](O)[C@H](Cc1ccccc1)NC(=O)[C@@H](CS(=O)(=O)c1ccc(F)cc1)NS(C)(=O)=O`, the half-maximal inhibitory concentration (IC50) worked out at 2 nM in assay [1] and 17 nM in the assay on CCRF-CEM [2]. In the assay with CCRF-CEM [3], this molecule gave an IC95 of 0.054 µM.

Consider `CC(=O)N[C@H](CS(=O)(=O)c1ccc(F)cc1)C(=O)N[C@@H](CSc1ccccc1)[C@H](O)CN1C[C@H]2CCS[C@H]2C[C@H]1C(=O)NC(C)(C)C`, for which the IC50 in assay [1] worked out at 1.8 nM; in the assay on CCRF-CEM [2] it was 57 nM. The same molecule yielded an IC95 with CCRF-CEM [3] of 0.18 µM.

As for `CC(C)CN(C[C@@H](O)[C@H](Cc1ccccc1)NC(=O)[C@@H](CSc1ccc(F)cc1)NS(C)(=O)=O)C(=O)NC(C)(C)C`, the IC50 in assay [1] worked out at 85 nM; in the assay on CCRF-CEM [2], 17000 nM. In the assay with CCRF-CEM [3], the concentration for an effect of 95% (IC95) came to 36 µM.

Turning to `CC(=O)N[C@H](CS(=O)(=O)c1cccc2cccnc12)C(=O)N[C@@H](Cc1ccccc1)[C@H](O)CN1C[C@H]2CCCC[C@H]2C[C@H]1C(=O)NC(C)(C)C`, the IC50 in assay [1] was 1.7 nM; in the assay with CCRF-CEM [2] it was 1.9 nM. The concentration for an effect of 95% (IC95) in the assay with CCRF-CEM [3] was found to be 0.064 µM.

Consider `CC(C)(C)NC(=O)[C@@H]1C[C@@H]2CCCC[C@@H]2CN1C[C@@H](O)[C@H](Cc1ccccc1)NC(=O)[C@@H](CSc1ccc2ccccc2c1)NS(C)(=O)=O`, for which the half-inhibitory concentration (IC50) in assay [1] is 5.1 nM; in the assay with CCRF-CEM [2], 71 nM. The same molecule gave a concentration for an effect of 95% (IC95) in the assay with CCRF-CEM [3] of 1.9 µM.

With `CC(C)CN(C[C@@H](O)[C@H](Cc1ccccc1)NC(=O)[C@@H](CS(=O)(=O)c1ccc(F)cc1)NS(C)(=O)=O)C(=O)NC(C)(C)C`, the half-maximal inhibitory concentration (IC50) amounted to 10 nM in assay [1] and 10000 nM in the assay with CCRF-CEM [2]. The molecule also gave a concentration for an effect of 95% (IC95) in the assay with CCRF-CEM [3] of 21 µM.

The molecule `CC(=O)N[C@H](CS(=O)(=O)c1ccc(F)cc1)C(=O)N[C@@H](Cc1ccccc1)[C@H](O)CN1C[C@H]2CCS[C@H]2C[C@H]1C(=O)NC(C)(C)C` came in with a half-maximal inhibitory concentration (IC50) in the assay on CCRF-CEM [2] of 70 nM. The molecule further yielded an IC95 with CCRF-CEM [3] of 0.73 µM.

On to `CC(=O)N[C@H](CS(=O)(=O)c1ccc2ccccc2c1)C(=O)N[C@@H](Cc1ccccc1)[C@H](O)CN1C[C@H]2CCCC[C@H]2C[C@H]1C(=O)NC(C)(C)C`, for which the 50% inhibitory concentration (IC50) in assay [1] is 1.6 nM; in the assay with CCRF-CEM [2] it was 9.5 nM. Further, in the assay on CCRF-CEM [3], the 95% effect level (IC95) was put at 0.022 µM.

With `CC(C)(C)NC(=O)[C@@H]1C[C@@H]2CCCC[C@@H]2CN1C[C@@H](O)[C@H](Cc1ccccc1)NC(=O)[C@@H](C[S+]([O-])c1ccc2ccccc2c1)NS(C)(=O)=O` (some centres undefined), the values for the IC50 (in assay [1]; in the assay with CCRF-CEM [2]) were 0.4 nM and 3.8 nM, respectively. The concentration for an effect of 95% (IC95) in the assay on CCRF-CEM [3] worked out at 0.0082 µM.

Turning to `CC(C)(C)NC(=O)[C@@H]1C[C@@H]2SCC[C@@H]2CN1C[C@@H](O)[C@H](Cc1ccccc1)NC(=O)[C@@H](CS(=O)(=O)c1cccc2cccnc12)NC(=O)C(F)(F)F`, the IC50 came out at 0.21 nM in assay [1] and 18 nM in the assay on CCRF-CEM [2]. In addition, the IC95 with CCRF-CEM [3] was 0.062 µM.

Regarding `CC(C)(C)NC(=O)[C@@H]1C[C@@H]2SCC[C@@H]2CN1C[C@@H](O)[C@H](Cc1ccccc1)NC(=O)[C@@H](CS(=O)(=O)c1ccc2ccccc2c1)NS(C)(=O)=O`, the IC50 is below 0.2 nM in assay [1] and 27 nM with CCRF-CEM [2]. In addition, in the assay with CCRF-CEM [3], the IC95 was 0.085 µM.

Take `CC(C)CN(C[C@@H](O)[C@H](Cc1ccccc1)NC(=O)[C@@H](CSc1ccc2ccccc2c1)NS(C)(=O)=O)C(=O)NC(C)(C)C`: the figures for the 50% inhibitory concentration (IC50) (in assay [1]; with CCRF-CEM [2]) were 50 nM and 4700 nM, respectively. Besides, the IC95 in the assay on CCRF-CEM [3] is 9.9 µM.

Turning to `CC(C)(C)NC(=O)[C@@H]1C[C@@H]2SCC[C@@H]2CN1C[C@@H](O)[C@H](Cc1ccccc1)NC(=O)[C@@H](CS(=O)(=O)c1ccc(F)cc1)NS(C)(=O)=O`, the IC50 was found to be 0.22 nM in assay [1] and 43 nM with CCRF-CEM [2]. In the assay on CCRF-CEM [3], this molecule came in with an IC95 of 0.19 µM.

Turning to `CC(=O)N[C@H](CSCc1ccccc1)C(=O)N[C@@H](Cc1ccccc1)[C@H](O)CN1C[C@H]2CCCC[C@H]2C[C@H]1C(=O)NC(C)(C)C`, the values for the concentration for half-maximal inhibition (IC50) (in assay [1]; in the assay on CCRF-CEM [2]) were 6 nM and 77 nM, respectively. For the same molecule, the 95% effect level with CCRF-CEM [3] (IC95) was put at 0.305 µM.

For the molecule `CC(C)(C)NC(=O)[C@@H]1C[C@@H]2SCC[C@@H]2CN1C[C@@H](O)[C@H](Cc1ccccc1)NC(=O)[C@@H](CS(=O)(=O)c1ccc2ccccc2c1)NC(=O)C(F)(F)F`, the concentration for half-maximal inhibition (IC50) in assay [1] is below 0.2 nM; in the assay on CCRF-CEM [2] it was 4.6 nM. In the assay with CCRF-CEM [3], this molecule yielded an IC95 of 0.032 µM.

As to `CC(=O)N[C@H](CS(=O)(=O)c1cccc2cccnc12)C(=O)N[C@@H](Cc1ccccc1)[C@H](O)CN1C[C@H]2CCS[C@H]2C[C@H]1C(=O)NC(C)(C)C`, the IC50 turned out to be 0.42 nM in assay [1] and 140 nM with CCRF-CEM [2]. This molecule displayed a concentration for an effect of 95% (IC95) in the assay with CCRF-CEM [3] of 0.3 µM.

As to `CC(C)(C)NC(=O)[C@@H]1C[C@@H]2CCCC[C@@H]2CN1C[C@@H](O)[C@H](Cc1ccccc1)NC(=O)[C@@H](CSc1ccc(F)cc1)NS(C)(=O)=O`, the concentration for half-maximal inhibition (IC50) is 24 nM in assay [1] and 150 nM with CCRF-CEM [2]. This molecule also returned an IC95 in the assay on CCRF-CEM [3] of 0.55 µM.

In the case of `CC(C)(C)NC(=O)[C@@H]1C[C@@H]2SCC[C@@H]2CN1C[C@@H](O)[C@H](CSc1ccccc1)NC(=O)[C@@H](CS(=O)(=O)c1ccc(F)cc1)NC(=O)C(F)(F)F`, the 50% inhibitory concentration (IC50) in assay [1] was found to be 10 nM; with CCRF-CEM [2] it was 180 nM. This molecule also gave a 95% effect concentration (IC95) with CCRF-CEM [3] of 0.84 µM.

The record behind these values is ChEMBL document CHEMBL1128092, “Potent, orally bioavailable HIV-1 protease inhibitors containing noncoded D-amino acids” (Bioorg Med Chem Lett, 1995).
